# In patent US12226424B2, “Target protein degradation compounds, their anti-tumor use, their intermediates and use of intermediates” (ShanghaiTech University, priority 2018, dated 2025):
# Assays:
# [1] = target: T1, c-ABL (Homo sapiens, UniProt P00519); test: Western-blot detection of c-ABL protein degradation (FIGS. 1-15); assay type: cell-based
# [2] = target: T1, c-ABL; test: Western-blot degradation of c-ABL in K562 cells; details: 24 h
# [3] = target: T2, BCR-ABL (Homo sapiens, UniProt P00519); test: Western-blot detection of BCR-ABL protein degradation (FIGS. 1-15); assay type: cell-based
# T2 sequence (P00519 with tags, fused parts or gaps): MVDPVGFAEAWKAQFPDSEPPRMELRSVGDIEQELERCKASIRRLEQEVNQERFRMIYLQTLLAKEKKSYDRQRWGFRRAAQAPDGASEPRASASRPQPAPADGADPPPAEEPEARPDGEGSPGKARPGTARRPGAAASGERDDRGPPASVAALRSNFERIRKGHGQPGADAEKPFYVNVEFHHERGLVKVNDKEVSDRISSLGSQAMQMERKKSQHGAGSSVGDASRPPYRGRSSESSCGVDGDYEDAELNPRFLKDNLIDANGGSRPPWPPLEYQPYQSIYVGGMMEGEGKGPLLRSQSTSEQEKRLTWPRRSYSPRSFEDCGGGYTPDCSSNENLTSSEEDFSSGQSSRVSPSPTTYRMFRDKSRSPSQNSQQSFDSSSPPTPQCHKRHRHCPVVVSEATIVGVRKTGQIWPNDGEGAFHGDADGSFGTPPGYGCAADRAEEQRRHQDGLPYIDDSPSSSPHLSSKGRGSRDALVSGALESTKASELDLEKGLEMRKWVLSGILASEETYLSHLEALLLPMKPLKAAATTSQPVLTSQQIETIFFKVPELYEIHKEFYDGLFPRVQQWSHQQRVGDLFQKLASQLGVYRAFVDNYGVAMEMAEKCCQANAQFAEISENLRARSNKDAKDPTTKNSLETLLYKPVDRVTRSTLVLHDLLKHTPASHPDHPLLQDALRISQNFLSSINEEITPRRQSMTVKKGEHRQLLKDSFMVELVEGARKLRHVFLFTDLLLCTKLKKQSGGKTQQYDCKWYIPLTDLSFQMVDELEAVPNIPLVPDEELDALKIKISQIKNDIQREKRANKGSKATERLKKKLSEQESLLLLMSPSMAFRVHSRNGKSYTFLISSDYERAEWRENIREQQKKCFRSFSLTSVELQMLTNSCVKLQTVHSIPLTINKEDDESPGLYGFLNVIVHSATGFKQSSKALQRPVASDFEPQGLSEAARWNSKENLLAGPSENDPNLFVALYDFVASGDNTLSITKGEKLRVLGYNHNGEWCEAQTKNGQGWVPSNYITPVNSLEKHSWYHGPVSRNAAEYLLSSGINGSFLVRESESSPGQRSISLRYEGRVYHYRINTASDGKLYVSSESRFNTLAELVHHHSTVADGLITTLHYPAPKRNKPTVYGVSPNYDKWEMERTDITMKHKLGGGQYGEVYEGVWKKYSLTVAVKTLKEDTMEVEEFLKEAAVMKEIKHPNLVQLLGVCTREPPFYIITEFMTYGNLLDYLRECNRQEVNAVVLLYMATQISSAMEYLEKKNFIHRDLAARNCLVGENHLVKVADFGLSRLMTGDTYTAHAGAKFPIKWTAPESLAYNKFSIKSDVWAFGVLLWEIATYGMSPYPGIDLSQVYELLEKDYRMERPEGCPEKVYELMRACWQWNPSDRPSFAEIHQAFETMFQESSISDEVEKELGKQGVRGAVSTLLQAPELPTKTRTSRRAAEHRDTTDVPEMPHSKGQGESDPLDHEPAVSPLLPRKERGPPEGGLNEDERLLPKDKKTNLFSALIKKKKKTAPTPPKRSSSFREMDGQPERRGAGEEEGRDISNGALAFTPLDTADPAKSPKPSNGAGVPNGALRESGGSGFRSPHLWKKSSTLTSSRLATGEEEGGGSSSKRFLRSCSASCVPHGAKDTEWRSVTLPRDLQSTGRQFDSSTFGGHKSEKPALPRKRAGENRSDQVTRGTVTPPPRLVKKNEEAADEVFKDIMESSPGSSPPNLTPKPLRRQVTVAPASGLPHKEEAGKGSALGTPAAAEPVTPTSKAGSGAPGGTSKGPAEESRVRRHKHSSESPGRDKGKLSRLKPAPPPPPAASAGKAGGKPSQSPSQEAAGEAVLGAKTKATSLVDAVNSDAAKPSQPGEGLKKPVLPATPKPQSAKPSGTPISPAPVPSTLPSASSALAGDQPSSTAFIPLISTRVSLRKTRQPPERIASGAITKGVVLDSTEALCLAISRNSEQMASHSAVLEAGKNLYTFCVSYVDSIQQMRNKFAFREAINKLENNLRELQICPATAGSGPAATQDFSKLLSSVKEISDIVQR
# [4] = target: T2, BCR-ABL; test: Western-blot half-degradation concentration (DC50) / degradation of BCR-ABL in K562 cells; details: 24 h
# [5] = target: T3, ER protein (Homo sapiens, UniProt P03372); test: Western blot half degradation concentration (DC50) of ER protein in T-47D cells; assay type: cell-based; details: 24 h, read-out: DC50 (nM)/T-47D cell line
# T3 construct: detect the expression of ER protein in T-47D cells; endogenous in cells; host or cells: T-47D
# T3 sequence (P03372 1-595): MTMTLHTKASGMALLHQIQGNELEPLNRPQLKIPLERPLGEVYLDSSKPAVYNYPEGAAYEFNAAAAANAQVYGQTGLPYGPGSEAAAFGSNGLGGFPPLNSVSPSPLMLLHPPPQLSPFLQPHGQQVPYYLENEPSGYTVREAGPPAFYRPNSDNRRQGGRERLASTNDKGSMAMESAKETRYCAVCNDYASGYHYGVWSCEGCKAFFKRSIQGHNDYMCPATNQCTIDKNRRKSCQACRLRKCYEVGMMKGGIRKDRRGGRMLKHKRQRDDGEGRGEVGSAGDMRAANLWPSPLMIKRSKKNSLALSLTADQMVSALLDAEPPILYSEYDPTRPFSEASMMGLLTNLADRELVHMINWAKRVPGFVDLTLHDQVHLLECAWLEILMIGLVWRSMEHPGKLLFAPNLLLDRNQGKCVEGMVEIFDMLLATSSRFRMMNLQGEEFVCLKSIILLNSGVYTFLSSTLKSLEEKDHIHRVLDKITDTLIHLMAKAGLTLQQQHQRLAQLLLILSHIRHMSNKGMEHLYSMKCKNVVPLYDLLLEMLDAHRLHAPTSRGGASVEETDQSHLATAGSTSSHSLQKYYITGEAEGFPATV
# Procedure: ER positive cells T-47D cells (human breast cancer cells) were purchased from the Cell Bank of the Chinese Academy of Sciences;
# The cells used in this present disclosure were cultured in a 37° C. incubator containing 5% CO2. The complete cell culture medium was RPMI 1640 medium with 10% fetal bovine serum, and the final concentrations of penicillin and streptomycin were 100 U/mL, respectively. All cells were tested negative for mycoplasma with mycoplasma detection kit before the experiment.
# Western Blot Determination of the Half Degradation Concentration (DC50) of the PROTAD Compounds on Target Proteins
# The PROTAD compounds of the present disclosure were tested at 5 concentration of 1 nM, 10 nM, 50 nM, 100 nM, 500 nM, respectively, or 5 concentration gradients of 0.04 nM, 0.2 nM, 1 nM, 10 nM, 50 nM, and DMSO and commercial parent inhibitor groups (tamoxifen, toremifene) were set as negative and positive controls at the same time. After the drug treatment for 24 h, cells were washed twice with PBS, and lyzed by adding 50 μL of SDS lysate to each well for lysis on ice for 5 min.
# T1 sequence (P00519 whole entry): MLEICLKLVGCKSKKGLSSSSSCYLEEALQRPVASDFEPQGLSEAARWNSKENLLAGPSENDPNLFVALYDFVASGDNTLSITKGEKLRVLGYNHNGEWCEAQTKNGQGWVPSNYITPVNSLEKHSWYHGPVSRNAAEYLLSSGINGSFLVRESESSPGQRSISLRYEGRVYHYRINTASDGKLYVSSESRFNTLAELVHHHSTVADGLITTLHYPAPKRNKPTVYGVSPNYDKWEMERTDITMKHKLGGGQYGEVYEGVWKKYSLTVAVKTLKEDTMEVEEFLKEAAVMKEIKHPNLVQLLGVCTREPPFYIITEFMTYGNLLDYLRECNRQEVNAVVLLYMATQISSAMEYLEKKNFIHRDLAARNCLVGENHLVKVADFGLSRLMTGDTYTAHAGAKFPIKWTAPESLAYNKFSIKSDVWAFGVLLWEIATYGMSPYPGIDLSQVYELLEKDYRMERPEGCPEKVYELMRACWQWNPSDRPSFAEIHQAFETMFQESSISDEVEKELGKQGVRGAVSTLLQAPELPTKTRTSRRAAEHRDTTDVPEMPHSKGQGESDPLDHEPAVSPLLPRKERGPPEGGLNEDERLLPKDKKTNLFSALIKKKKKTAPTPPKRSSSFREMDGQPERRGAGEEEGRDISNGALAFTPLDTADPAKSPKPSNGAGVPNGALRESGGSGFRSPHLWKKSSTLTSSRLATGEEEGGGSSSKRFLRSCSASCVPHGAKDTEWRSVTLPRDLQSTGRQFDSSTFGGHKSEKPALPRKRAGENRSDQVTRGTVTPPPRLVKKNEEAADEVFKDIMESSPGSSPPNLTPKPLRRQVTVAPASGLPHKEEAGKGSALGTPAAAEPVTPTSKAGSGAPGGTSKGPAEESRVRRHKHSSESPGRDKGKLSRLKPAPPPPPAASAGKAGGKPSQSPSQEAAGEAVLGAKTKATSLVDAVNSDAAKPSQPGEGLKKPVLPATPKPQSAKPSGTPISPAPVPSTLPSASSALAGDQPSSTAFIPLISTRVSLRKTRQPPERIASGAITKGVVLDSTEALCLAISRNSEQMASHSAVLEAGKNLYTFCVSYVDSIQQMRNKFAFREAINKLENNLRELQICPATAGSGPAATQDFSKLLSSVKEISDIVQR
Structure (SMILES),"ability to degrade c-ABL protein (Western-blot, in words) [1]",degradation of c-ABL protein (Western-blot) [2],"ability to degrade BCR-ABL protein (Western-blot, in words) [3]",degradation of BCR-ABL protein (Western-blot) [4],DC50 [5]
"Cc1nc(Nc2ncc(C(=O)Nc3c(C)cccc3Cl)s2)cc(N2CCN(C(=O)CNc3cccc4c3C(=O)N(C3CCC(=O)NC3=O)C4=O)CC2)n1 (stereo not drawn) [SIAIS151072, N-(2-chloro-6-methylphenyl)-2-((6-(4-((2-(2,6-dioxopiperidin-3-yl)-1,3-dioxoisoindolin-4-yl)aminoacetyl)piperazin-1-yl)-2-methylpyrimidin-4-yl)amino)thiazole-5-carboxamide]",significantly weaker ability to degrade,significantly weaker ability to degrade BCR-ABL and c-ABL proteins,significantly weaker ability to degrade,significantly weaker ability to degrade BCR-ABL and c-ABL proteins,–
"CCC(=C(c1ccc(O)cc1)c1ccc(OCCNC(=O)CCCCCCSc2cccc3c2C(=O)N(C2CCC(=O)NC2=O)C3=O)cc1)c1ccc(O)cc1 (stereo not drawn) [SIAIS208170, N-(2-(4-(1,2-bis(4-hydroxyphenyl)but-1-en-1-yl)phenoxy)ethyl)-7-((2-(2,6-dioxopiperidin-3-yl)-1,3-dioxoisoindolin-4-yl)thio)heptanamide]",–,–,–,–,10 nM
"CCC(=C(c1ccc(O)cc1)c1ccc(OCCNC(=O)CCCCCCSc2cccc3c2CN(C2CCC(=O)NC2=O)C3=O)cc1)c1ccc(O)cc1 (stereo not drawn) [SIAIS208171, N-(2-(4-(1,2-bis(4-hydroxyphenyl)but-1-en-1-yl)phenoxy)ethyl)-7-((2-(2,6-dioxopiperidin-3-yl)-1-oxoisoindolin-4-yl)thio)heptanamide]",–,–,–,–,10 nM
